Data taken from US20130065825A1, “Compositions and Methods for Delaying Senescence or Cell Death in Neurons” (NEUROTEZ, INC., priority 2011, published 2013).

How the values were obtained:
[1] = tested on: AMP-Activated Protein Kinase (AMPK); experiment: AMPK activity assay (CycLex AMPK Kinase Assay Kit) in lysates of RA-SY5Y cells; assay type: cell-based, human
Protocol: (§1) For neuronal differentiation, 1×10^6 SY5Y or IMR-32 cells were grown in neruonal induction medium (NIM), which is consisted of MEM containing 2% FBS supplemented with 10 μM retinoic acid (RA). Cells were incubated in NIM for 6 days, and switched to serum-free NIM prior to treatment and harvesting on day 7.
(§2) Neuronal cells were treated with Leptin (500 ng/ml) in the presence or absence of nicotinamide (5 mM) or compound C (20 μM) for 6 or 18 h, depending on readout, and then harvested by scraping. Preparation of lysates and immunoblotting were performed as described.
AMP-Activated Protein Kinase (AMPK) activity in cell lysates was determined using the CycLex AMPK Kinase Assay Kit (MBL International; Woburn, Mass.), as described previously. Briefly, the term “relative AMPK activity” or “AMPK activity,” is defined as Compound C-sensitive protein kinase activity in cell lysates. Titration of various Compound C doses identified 10 μM as the dose in which there was no further reduction in kinase activity upon increasing concentration (data not shown). Neuronal cell lysates were incubated in the presence or absence of 10 μM Compound C, and protein kinase activity determined by measuring phosphorylation of the Insulin Receptor Substrate-1 (IRS-1) through immunoassay and conversion of a chromogenic substrate at an absorbance of 450 nm (A450). Normalized AMPK activity in the lysates was defined as: […]

phosphorylated tau = experiment: Tau phosphorylation in RA-SY5Y cells by immunoblot (pTau181) and ELISA (pTau231, pTau396); assay type: cell-based, human; conditions: 6 h; for effect of co-treatment on Leptin's reduction of phospho-tau: Leptin 500 ng/mL + nicotinamide 5 mM or compound C 20 μM, phospho-tau returned to control levels; for Tau396 phosphorylation compared to control: nicotinamide 5 mM or compound C 20 μM, independent of Leptin treatment, ELISA
Protocol: as §1, §2
(§3) Aβ(1-40) levels in cell culture media were determined using the Human β-Amyloid 1-40 ELISA kit (Invitrogen; Carlsbad, Calif.), and phospho- and total tau levels in cell culture lysates were determined using the Human Tau pSer^396, pThr^231 and Total Tau ELISA kits (Invitrogen) according to manufacturer's specific instructions.
The Invitrogen Human Tau (Total) kit is a solid phase sandwich Enzyme Linked-Immuno-Sorbent Assay (ELISA). Samples, including standards of known human Tau content, control specimens, and unknowns, are pipetted into the wells of microtiter strips, which are coated with a monoclonal antibody specific for human Tau. During the first incubation, the human Tau antigen binds to the immobilized (capture) antibody on one site. After washing, a rabbit polyclonal antibody specific for human Tau is added. During the second incubation, this antibody binds to the immobilized human Tau captured during the first incubation. After removal of excess second antibody, a horseradish peroxidase (HRP)-labeled anti-rabbit antibody is added. This binds to the rabbit polyclonal antibody to complete the four-member sandwich. After a third incubation and washing to remove all the excess anti-rabbit HRP, a substrate solution is added, which is acted upon by the bound enzyme to produce color. The intensity of this colored product is directly proportional to the concentration of human Tau present in the original specimen.

Aβ(1-40) = Aβ(1-40) in culture media of SY5Y-APP751 cells by ELISA; assay type: cell-based, human; conditions: 18 h; for effect of co-treatment on Leptin's reduction of Aβ(1-40): Leptin 500 ng/mL + nicotinamide 5 mM or compound C 20 μM, Aβ(1-40) returned to vehicle levels
Protocol: To generate SY5Y stably over-expressing amyloid precursor protein (APP), cells were transfected with a mammalian expression vector encoding the 751 amino acid isoform of human APP (APP751-Accession #NM_201413) (Origene Technologies; Rockville, Md.) using the FuGENE HD transfection reagent, according to manufacturer's specific instructions (Promega; Madison, Wis.). Briefly, cells were transiently transfected with APP751 or vehicle for 48 h and then switched into selection medium containing a concentration range of the antibiotic G418 (100-600 μg/mL) to determine the optimal dose for stable selection. Selection media was changed every 3 days to remove non-viable cells. After 3 weeks, 200 μg/mL G418 yielded distinct colonies while all vehicle-transfected cells were non-viable. Cells were maintained in 10% FBS media containing 200 μg/mL G418 for expansion.
as §2, §3
The Human β-Amyloid 1-40 ELISA kit was used for the quantitative determination of human Aβ40 in samples (e.g., tissue culture medium, tissue homogenate, cerebrospinal fluid (CSF), and the like). The assay recognizes both natural and synthetic forms of human Aβ40. The anti-human Aβ40 antibody is capable of selectively detecting Aβ40 and not Aβ42/Aβ43. The Human β-Amyloid 1-40 ELISA kit is a solid phase sandwich Enzyme Linked-Immuno-Sorbent Assay (ELISA). […] This COOH-terminal sequence is created upon cleavage of the analyzed precursor. Bound rabbit antibody then is detected by the use of a horseradish peroxidase (HRP)-labeled anti-rabbit antibody. […]

Total Sirtuins [2] = experiment: SIRT activity assay (Fluor-de-Lys HDAC Fluorimetric Cellular Activity Assay Kit) in lysates of RA-SY5Y cells; assay type: cell-based, human; conditions: 6 h
Protocol: as §1, §2
Total Sirtuins activity in cell lysates was determined using the Fluro-de-Lys® HDAC Fluorimetric Cellular Activity Assay Kit (Enzo Life Sciences; Plymouth Meeting, Pa.), according to manufacturer's specified guidelines. “SIRT activity” in this assay is defined as nicotinamide-sensitive deacetylase (class III HDAC) activity in cell lysates. […] Neuronal cell lysates were incubated in the presence or absence of 5 mM nicotinamide, and SIRT activity determined by adding the Flour-de-Lys® Substrate for deacetylation followed by exposure to the Fluor-de-Lys® Developer to generate a fluorescent signal for detection using a fluorimeter (Ex. 350-380 nm; Em. 440-460 nm). Normalized SIRT activity in the lysates was measured in units of fluorescence intensity (Fi) and defined as: […]

Total Sirtuins [3] = conditions: identified by the manufacturer of the kit; cited from earlier work

Row | Compound | AMPK activity on co-treatment with Leptin ([1]; RA-SY5Y cells, Leptin 500 ng/mL + compound C 20 μM, 6 h, to levels similar to non-treated control) | dose with no further reduction in kinase activity upon increasing concentration ([1]; titration in cell lysates, data not shown) [µM] | effect of co-treatment on Leptin's reduction of phospho-tau (phosphorylated tau) | Tau396 phosphorylation compared to control (phosphorylated tau) | effect of co-treatment on Leptin's reduction of Aβ(1-40) (Aβ(1-40)) | SIRT activity on co-treatment with Leptin (Total Sirtuins [2]; Leptin 500 ng/mL + nicotinamide 5 mM, to levels similar to non-treated control) | dose with no further reduction in deacetylase activity upon increasing concentration (Total Sirtuins [3]) [mM] | increase in AMPK kinase activity vs cells treated without Leptin ([1]; RA-SY5Y cells, Leptin 500 ng/mL, 6 h, normalized to total protein, n=3, p<0.05) | increase in total SIRT deacetylase activity vs cells treated without Leptin (Total Sirtuins [2]; Leptin 500 ng/mL, normalized to total protein, n=3, p<0.05) | all examined phospho-tau species (pTau181, pTau231, pTau396) (phosphorylated tau; Leptin 500 ng/mL, no SIRT or AMPK inhibition, normalized to total tau, n=3) | Aβ(1-40) in culture media (Aβ(1-40); Leptin 500 ng/mL, no inhibitors, normalized to total protein, n=3)
1 | c1cc(-c2cnn3cc(-c4ccc(OCCN5CCCCC5)cc4)cnc23)ccn1 [compound C, 6-[4-(2-Piperidin-1-yl-ethoxy)-phenyl]-3-pyridin-4-yl-pyrrazolo[1,5,-α]pyrimidine] | significantly (p<0.05) reduced AMPK activity | 10 | negated these effects | significantly (p<0.05) increased | reversed these effects | – | – | – | – | – | –
2 | NC(=O)c1cccnc1 [nicotinamide] | – | – | negated these effects | significantly (p<0.05) increased | reversed these effects | significantly (p<0.05) reduced SIRT activity | 5 | – | – | – | –
3 | Leptin: recombinant human Leptin purchased from Sigma-Aldrich; pleiotropic hormone primarily secreted by adipocytes | – | – | – | – | – | – | – | approximately 2 fold | approximately 2.5 fold | significant (p<0.05) reduction | significant (p<0.05) reduction
